# Article PMC6031733, “Adding a C-terminal Cysteine (CTC) Can Enhance the Bactericidal Activity of Three Different Antimicrobial Peptides” (Frontiers in Microbiology, 2018)
# Where two headings read alike, the source gives them in different places. Positions of bridges follow the written chain, without caps; N, C: chain ends. Non-standard residues stand in square brackets, D forms with d. Residues, ends and D or L forms follow the SMILES beside them. No end group written: not given here. *: point of attachment. X1 = CC[C@H](C)CCCCC(=O)*; Dab = NCC[C@H](N)C(=O)O
# Assays:
# S. aureus ATCC19636 = type: cell-based, Staphylococcus aureus; conditions: for MBC: pH 7.2
# Experimental: (§1) Peptides were diluted in the same buffer. […] All peptides were tested in triplicate. […] Peptides were also diluted in MH broth. […] All peptides were tested in duplicate.
# ICR mice [1] = assay: In vivo acute toxicity, survival
# Experimental: (§2) To measure in vivo the acute toxicity, 3-week-old male ICR mice (∼20 g) were purchased from BioLASCO (Taiwan). The mice were randomly separated into 6 groups, and were intraperitoneally injected with D-150-177C at concentrations of 20, 40, 60, and 80 mg/kg. A last-line antibiotic, polymyxin B (20 and 50 mg/kg), was used as a control. Each group contained 5 mice. At 1 day post-injection, blood sample was collected from each mouse. The liver function of mice was determined by measuring the ALT level in the blood. The survival rates of injected mice were monitored for 7 days.
# (§3) Polymyxins are the last-line antibiotics, but could be toxic at higher dose. We compared the acute toxicity of peptide D-150-177C with polymyxin B using ICR mice. The mice (∼20 g) were i.p. injected with D-150-177C peptide (20–80 mg/kg body weight). Polymyxin B (50 mg/kg body weight) was used as a control antibiotic. […] In contrast, all mice died of polymyxin B at 50 mg/kg.
# K. pneumoniae ATCC13884 = type: cell-based, Klebsiella pneumoniae
# Experimental: as §1
# A. baumannii ATCC17978 [2] = type: cell-based, Acinetobacter baumannii
# Experimental: as §1
# P. aeruginosa ATCC9027 = type: cell-based, Pseudomonas aeruginosa
# Experimental: as §1
# [3] = treated mice, all tissues; ref Chen et al., 2013; cited from earlier work
# Source text: To reduce the cost for D-amino acids in peptide synthesis, we engineered peptides DL-150-177C and LD-150-177C, which contain only approximately 50 ...
# P. aeruginosa ATCC27853 = assay: Minimum bactericidal concentration (MBC); type: cell-based, Pseudomonas aeruginosa; conditions: phosphate buffer pH 7.2, 37°C, 3 h, zero colony, triplicate
# Experimental: as §1
# A. baumannii ATCC46709 = assay: Minimum bactericidal concentration (MBC); type: cell-based, Acinetobacter baumannii; conditions: A. baumannii ATCC46709 (so in the source); phosphate buffer pH 7.2, 37°C, 3 h; zero colony; triplicate
# Experimental: as §1
# A. baumannii ATCC45530 = assay: Minimum bactericidal concentration (MBC); type: cell-based, Acinetobacter baumannii; conditions: A. baumannii ATCC45530 (so in the source); phosphate buffer pH 7.2, 37°C, 3 h; zero colony; triplicate
# Experimental: as §1
# A. baumannii ATCC19606 = assay: Minimum bactericidal concentration (MBC); type: cell-based, Acinetobacter baumannii; conditions: phosphate buffer pH 7.2, 37°C, 3 h, zero colony, triplicate
# Experimental: as §1
# S. aureus ATCC25923 = assay: Minimum bactericidal concentration (MBC); type: cell-based, Staphylococcus aureus; conditions: phosphate buffer pH 7.2, 37°C, 3 h, zero colony, triplicate
# Experimental: as §1
# S. aureus ATCC29213 = assay: Minimum bactericidal concentration (MBC); type: cell-based, Staphylococcus aureus; conditions: phosphate buffer pH 7.2, 37°C, 3 h, zero colony, triplicate
# Experimental: as §1
# E. coli ATCC25922 = assay: Minimum bactericidal concentration (MBC); type: cell-based, Escherichia coli; conditions: phosphate buffer pH 7.2, 37°C, 3 h, zero colony, triplicate
# Experimental: as §1
# A. baumannii ATCC17978 [4] = conditions: A. baumannii ATCC17978 strain
# Experimental: as §1
# [5] = system: colistin-resistant A. baumannii TCGH 46709; assay: Mouse lung infection model, survival; type: in vivo; conditions: C57BL/6JNarl mice, i.t. A. baumannii TCGH 46709 3.5 × 10^8 CFU/mouse, three consecutive days, 16 mice/group, 3 days
# Experimental: (§4) We determined the in vivo protection efficacy of peptides in two different mouse infection models. In the mouse sepsis model ([Chen et al., 2016]), 3-week-old male ICR mice (∼20 g) were purchased from BioLASCO (Taiwan). These mice were inoculated intraperitoneally with S. aureus ATCC 19636 (4 × 10^6 CFU/mouse). At 2 h post-inoculation, the mice were randomly separated into 5 groups and received peptides (5 or 10 mg/kg) or the PBS control, respectively. Each group contained 5 mice. Mortality was monitored daily for 7 days following the bacterial inoculation. This experiment was repeated twice. In the mouse lung infection model ([Yang et al., 2016]), 6–8-week-old male C57BL/6JNarl mice (∼27 g) were purchased from National Laboratory Animal Center, Taiwan. The inoculums (3.5 × 10^8 CFU/mouse) were prepared by 1:1 mixing of LB culture and 10% mucin (Sigma). All mice were randomly separated into 3 groups and anesthetized by Isoflurane via inhalation, and inoculated intra-tracheally with colistin-resistant A. baumannii TCGH 46709. Two hours after inoculation, the mice were intraperitoneally injected daily with either colistin (5 mg/kg) ([Fishbain and Peleg, 2010]) or HBcARD derivative peptides (5 or 10 mg/kg), respectively, for three consecutive days. Each group contained 8 mice. Mortality was monitored every 12 h following the bacterial inoculation. This experiment was repeated twice.
# C57BL/6JNarl mice (∼27 g) were anesthetized and intra-tracheally inoculated with A. baumannii (3.5 × 10^8 CFU/mouse). At 2 h post-inoculation, the mice received i.p. injection of either D-150-177C or colistin, respectively, for three consecutive days (1 injection per day).
# S. aureus ATCC 19636 = assay: Mouse sepsis model, survival; type: in vivo; conditions: ICR mice
# Experimental: as §4
# The mice (∼20 g) were i.p. (intraperitoneally) inoculated with S. aureus ATCC19636 (4 × 10^6 CFU/mouse), followed by treatments with peptides or the PBS control at 2 h post-inoculation. We monitored the survival rate for 7 days (Figure 2B). All mice treated with PBS (10/10) died at day 1 post-inoculation. […] In contrast, administration of L-150-177C peptide at the same dose protected 70% of mice (7/10) from death (p < 0.05). It appears that the C-terminal cysteine is very critical for the in vivo protection as well. Next, we compared the in vivo protection efficacy of HBcARD 150-177C peptides containing either D-form or L-form arginines in this same model. The protection efficacy of peptide L-150-177C was 30% (3/10) at 5 mg/kg, whereas D-150-177C can protect all mice (10/10) from death at the same dose (Figure 2B).
# [6] = system: colistin-sensitive A. baumannii ATCC17978; assay: Mouse lung infection model, survival; type: in vivo; conditions: C57BL/6JNarl mice, i.t. colistin-sensitive A. baumannii ATCC17978; i.p. daily for three days; data not shown
# ICR mice [7] = assay: In vivo acute toxicity, serum ALT (liver injury)
# Experimental: as §2, §3
# [8] = S. aureus ATCC19636, 10^6 CFU/ml in 10 mM sodium phosphate, 50 mM NaCl, 37°C, 3 h, plated on MH agar, zero colony, triplicate
# [9] = A. baumannii ATCC17978, phosphate buffer pH 7.2, 37°C, 3 h, zero colony, triplicate
# [10] = P. aeruginosa ATCC9027, phosphate buffer pH 7.2, 37°C, 3 h, zero colony, triplicate
# [11] = S. aureus ATCC19636 4 × 10^6 CFU/mouse i.p., peptide 5 mg/kg at 2 h post-inoculation, 7 days, n = 10/group (Figure 2B)
molecule,measurement,setting,value
RRRTPSPRRRRSQSPRRRRSC [157-177C],MBC,S. aureus ATCC19636; [8],> 57.2 µg/mL
RRRRSQSPRRRRSC [164-177C],MBC,S. aureus ATCC19636; [8],> 57.2 µg/mL
polymyxin B [reference compound],survival,"ICR mice [1]; single i.p. 50 mg/kg, 7 days, 5 mice/group",all mice died
NAKDYKGAAAEFPKWNKAGGRVLAGLVKRRKC [LysinC],MBC,"K. pneumoniae ATCC13884; ATCC13884, 3 h, pH 7.2",128 µg/mL
same,decrease in MBC relative to parental peptide without C-terminal cysteine,K. pneumoniae ATCC13884; K. pneumonia,> 8 fold
same,MBC,"S. aureus ATCC19636; ATCC19636, 3 h",128 µg/mL
same,decrease in MBC relative to parental peptide without C-terminal cysteine,S. aureus ATCC19636; S. aureus,> 8 fold
same,decrease in MBC relative to parental peptide without C-terminal cysteine,A. baumannii ATCC17978 [2]; A. baumannii,32 fold
same,MBC,"A. baumannii ATCC17978 [2]; ATCC17978, 3 h, pH 7.2",32 µg/mL
same,MBC,"P. aeruginosa ATCC9027; ATCC9027, 3 h, pH 7.2",16 µg/mL
same,decrease in MBC relative to parental peptide without C-terminal cysteine,P. aeruginosa ATCC9027; P. aeruginosa,4 fold
TVVRRRGRSPRRRTPSPRRRRSQSPRRRRSQSRESQC [147-183],"reduction of bacterial burdens in spleen, liver, and blood",[3],approximately 100 fold
same,MBC,P. aeruginosa ATCC27853,9.2 µg/mL
same,MBC,S. aureus ATCC19636; [8],18.3 µg/mL
same,MBC,A. baumannii ATCC46709,4.6 µg/mL
same,MBC,A. baumannii ATCC45530,2.3 µg/mL
same,MBC,A. baumannii ATCC19606,2.3 µg/mL
same,MBC,S. aureus ATCC25923,18.3 µg/mL
same,MBC,S. aureus ATCC29213,18.3 µg/mL
same,MBC,A. baumannii ATCC17978 [2]; [9],2.3 µg/mL
same,MBC,P. aeruginosa ATCC9027; [10],9.2 µg/mL
same,MBC,E. coli ATCC25922,18.3 µg/mL
"CC[C@H](C)CCCCC(=O)N[C@@H](CCN)C(=O)N[C@H](C(=O)N[C@@H](CCN)C(=O)N[C@H]1CCNC(=O)[C@H]([C@@H](C)O)NC(=O)[C@H](CCN)NC(=O)[C@H](CCN)NC(=O)[C@H](CC(C)C)NC(=O)[C@@H](CC(C)C)NC(=O)[C@H](CCN)NC1=O)[C@@H](C)O [colistin, reference compound] (X1-[Dab]T[Dab][Dab][Dab][dL]L[Dab][Dab]T; lactam 4-C (inferred); N-terminus assumed)",MIC,A. baumannii ATCC17978 [4],around 4 mg/L
same,survival rate (mice protected from death),[5]; 5 mg/kg/day i.p. from 2 h,12.5%
C[C@@H](O)[C@H](NC(=O)[C@@H](CCCNC(=N)N)NC(=O)[C@@H](CCCNC(=N)N)NC(=O)[C@@H](CCCNC(=N)N)NC(=O)[C@@H]1CCCN1C(=O)[C@H](CO)NC(=O)[C@@H](CCCNC(=N)N)NC(=O)CNC(=O)[C@@H](CCCNC(=N)N)NC(=O)[C@@H](CCCNC(=N)N)NC(=O)[C@H](N)CCCNC(=N)N)C(=O)N1CCC[C@H]1C(=O)N[C@@H](CO)C(=O)N1CCC[C@H]1C(=O)N[C@H](CCCNC(=N)N)C(=O)N[C@H](CCCNC(=N)N)C(=O)N[C@H](CCCNC(=N)N)C(=O)N[C@H](CCCNC(=N)N)C(=O)N[C@@H](CO)C(=O)N[C@@H](CCC(N)=O)C(=O)N[C@@H](CO)C(=O)N1CCC[C@H]1C(=O)N[C@H](CCCNC(=N)N)C(=O)N[C@H](CCCNC(=N)N)C(=O)N[C@H](CCCNC(=N)N)C(=O)N[C@H](CCCNC(=N)N)C(=O)N[C@@H](CO)C(=O)N[C@@H](CS)C(=O)O [D-150-177C] (H-[dR][dR][dR]G[dR]SP[dR][dR][dR]TPSP[dR][dR][dR][dR]SQSP[dR][dR][dR][dR]SC-OH; N-terminus and C-terminus assumed),survival rate,S. aureus ATCC 19636; [11],100%
same,survival rate,"S. aureus ATCC 19636; S. aureus sepsis, peptide 5 mg/kg at 2 h post-inoculation, n = 10/group, D-arginine substitution comparison (Figure 4)",protected all mice from death
same,survival rate,[6],comparable to that of colistin treatment
same,survival rate (mice protected from death),[5]; 5 mg/kg/day i.p. from 2 h,62.5%
same,survival rate (mice protected from death),[5]; 10 mg/kg/day i.p. from 2 h,87.5%
same,ALT level compared with polymyxin B at 20 mg/kg,"ICR mice [7]; i.p. 20 mg/kg, serum at day 1",slight increase
same,ALT level compared with polymyxin B at 20 mg/kg,"ICR mice [7]; i.p. 40 mg/kg, serum at day 1",slight increase
same,ALT level compared with polymyxin B at 20 mg/kg,"ICR mice [7]; i.p. 60 mg/kg, serum at day 1, P < 0.01",significantly higher
same,average ALT value,"ICR mice [7]; i.p. 60 mg/kg, serum at day 1 post-injection",less than 100 IU/L
same,LD50,"ICR mice [1]; i.p., estimated from survival at 20-80 mg/kg",~75 mg/kg
same,survival rate,"ICR mice [1]; single i.p. 20 mg/kg, 7 days, 5 mice/group",100%
same,survival rate,"ICR mice [1]; single i.p. 40 mg/kg, 7 days, 5 mice/group",100%
same,survival rate,"ICR mice [1]; single i.p. 60 mg/kg, 7 days, 5 mice/group",80%
same,survival rate,"ICR mice [1]; single i.p. 80 mg/kg, 7 days, 5 mice/group",40%
RRRGRSPRRRTPSPRRRRSQSPRRRRSC [150-177C],survival rate,S. aureus ATCC 19636; [11],30%
same,survival rate,"S. aureus ATCC 19636; S. aureus ATCC19636 4 × 10^6 CFU/mouse i.p., peptide 10 mg/kg at 2 h post-inoculation, 7 days, n = 10/group (Figure 2B)",70%
same,MBC,P. aeruginosa ATCC27853,7.1 µg/mL
same,MBC,S. aureus ATCC19636; [8],7.1 µg/mL
same,MBC,A. baumannii ATCC46709,3.6 µg/mL
same,MBC,A. baumannii ATCC45530,1.8 µg/mL
same,MBC,A. baumannii ATCC19606,0.9 µg/mL
same,MBC,S. aureus ATCC25923,7.1 µg/mL
same,MBC,S. aureus ATCC29213,7.1 µg/mL
same,MBC,A. baumannii ATCC17978 [2]; [9],1.8 µg/mL
same,MBC,P. aeruginosa ATCC9027; [10],7.1 µg/mL
same,MBC,E. coli ATCC25922,7.1 µg/mL
RRRGRSPRRRTPSPRRRRSC [150-171C],MBC,S. aureus ATCC19636; [8],> 57.2 µg/mL
